Experimental data taken from patent publication US12350364B2, “Lipid body compositions, products made therefrom, methods of making same, and methods of use” (Xylome Corporation, priority 2019, dated 2025).
Blank lines part the entries; values can stand above or below the compound they belong to.

How the values were obtained:
Assay type in all cases: physicochemical
[1] = Lidocaine binding and partitioning into lipid bodies (UV 260 nm after 0.2 μm filtration)
From the text: Lipid bodies were cleared of excipients and antimicrobial preservative by undergoing a 1:10 wash in ethanol followed by rehydration in distilled water.

[2] = Drug loading into lipid-body composition and release into PBS (UV-VIS / HPLC); settings: for drug released, concentration: 6-fold dilution
[3] = Uptake of hydrophobic dyes by lipid bodies (mixing, centrifugation/flotation); settings: for uptake of hydrophobic model compound into lipid bodies: about 50% lipid bodies, mixed about 10 minutes, centrifuged
Protocol: In this example, fermentations of different engineered hyper lipogenic Lipomyces starkeyi were used to create lipid bodies. Using the engineered hyper-lipogenic strain XYL-403, compositions of lipid bodies were prepared with a diameter from 6.9+/−1.4 microns when measured under a microscope using a calibrated Petroff Hauser counter. Following the initial preparation of lipid bodies, the lipid bodies were fused using high levels of salt at 1M NaCl, solvents such as ethanol at 20% (v/v) in water, and application of shear force using centrifugation (FIG. 12A). Homogenization, filtration, or chemical treatments can be used as alternatives to or in additional centrifugation to induce shear force. Thus, compositions utilizing even larger lipid bodies (e.g., between 12 to 50 μm) can be developed using physically modified and merged lipid bodies. The advantages of larger lipid bodies can be extended using high total volumes of drug carrying capacity.
This example opens the possibility of even higher volumetric carrying capacity of lipid-body compositions of the invention when expanded to the upper limit of known diameter.
In this example, lipid bodies at about 50% concentration in base composition of example 1A were subjected to the addition of concentrated Nile red, which had been solubilized in DMSO and used in this example as a surrogate for a hydrophobic compound or hydrophobic drug. The lipid-body composition was mixed with Nile red for 10 minutes and centrifuged. After centrifugation, the lipid bodies separate by flotation and all of the Nile red entered into the lipid bodies. The lipid bodies remain hydrophilic on the exterior of the lipid body spheres and continue to feel aqueous.
In another version of this example, lipid bodies at approximately 50% by dry weight were mixed with a second hydrophobic model drug compound, Sudan black. […] Similar to the Nile red results, Sudan black is shown to be taken up by lipid bodies (FIG. 13B).

[4] = 100 μL of 5 mg/mL stock per 1 g lipid bodies, 300 mg in 1 mL PBS, 15 min, room temperature, UV 343 nm
[5] = Example 19: dry powder loading plus 33 μL PBS, UV 350 nm

Compound: CCN(CC)CC(=O)Nc1c(C)cccc1C [Lidocaine]
- Lidocaine in Aqueous Cream Fraction ([1]; 500 μg Lidocaine in Salt (1M NaCl)): 72%
- Lidocaine in Aqueous Cream Fraction ([1]; 500 μg Lidocaine in Water): 83%
- Lidocaine in Aqueous Cream Fraction ([1]; Control: 500 μg Lidocaine without Lipid Bodies and Filtered): 100%

Compound: CCN(CC)c1ccc2nc3c4ccccc4c(=O)cc-3oc2c1 [Nile red]
- uptake of hydrophobic model compound into lipid bodies [3]: quantitatively complete

Compound: CC1(C)Nc2cccc3c(N=Nc4ccc(N=Nc5ccccc5)c5ccccc45)ccc(c23)N1 [Sudan black]
- uptake of hydrophobic model compound into lipid bodies [3]: essentially all of the Sudan black loaded into the lipid bodies
- taken up into the lipid bodies ([3]; merged very large lipid bodies (1M NaCl, 20% ethanol, centrifugation)): ~100%

Compound: COc1cc2c(c(OC)c1OC)-c1ccc(OC)c(=O)cc1[C@@H](NC(C)=O)CC2 [colchicine]
- colchicine released ([2]; Example 15: 55% aqueous/45% drug-containing lipid-body composition, 100 μL of 2 mg/mL stock per 1 g lipid body, 300 mg in 1 mL PBS, 15 min, room temperature, UV 350 nm): 5.9 µg/mL
- drug release ([2]; Example 15: 55% aqueous/45% drug-containing lipid-body composition, 300 mg in 1 mL PBS, 15 min, room temperature, UV 350 nm): 9.8%
- colchicine released ([2]; Example 16: 62% liquid/38% composition, HPLC): 41%
- drug released ([2]; Example 16: 62% liquid/38% composition, HPLC (350 nm, 2.9 minutes)): 61.5 µg/mL
- released, % of the total colchicine ([2]; Example 16: 62% liquid/38% composition, UV 350 nm): 34.5%
- drug released ([2]; Example 16: 62% liquid/38% drug-containing lipid-body composition, 5 mg/mL stock, 200 μL PBS added, 1 mL PBS, room temperature, UV 350 nm): 51.8 µg/mL
- released, % of the total compound loaded ([2]; Example 17: 67% liquid/33% composition, UV 350 nm): 15.1%
- colchicine released ([2]; Example 17: 67% liquid/33% drug-containing lipid-body composition, 178 μL PBS added, UV 350 nm): 22.6 µg/mL
- colchicine released ([2]; Example 18: 30 mg dry powder mixed into 1 g lipid bodies, 300 mg in 2 mL PBS, 15 min, room temperature, UV 350 nm): 3,390 μg/mL
- released, % of the total colchicine present ([2]; Example 18: dry powder loading, 50% lipid-body composition, UV 350 nm): 37.6%
- colchicine released [2, 5]: 4000 µg/mL
- released, % of the total colchicine [2, 5]: 44%

Compound: CCN(CCO)CCCC(C)Nc1ccnc2cc(Cl)ccc12 (stereo not drawn) [hydroxychloroquine]
- total release [2, 4]: 10.4%
- drug released, concentration [2, 4]: 5.66 µg/mL

The next lines start with the values.

- Losartan released into 1 mL PBS, concentration ([2]; 100 μL of 5 mg/mL stock per 1 g lipid bodies, 300 mg in 1 mL PBS, HPLC 210 nm, 3.9 minutes): 54.4 µg/mL
- total release ([2]; Losartan, 300 mg in 1 mL PBS, HPLC 210 nm): 36.3%
Compound: CCCCc1nc(Cl)c(CO)n1Cc1ccc(-c2ccccc2-c2nn[nH]n2)cc1 [Losartan]

- Travoprost released ([2]; first procedure: 2 μL of 25 mg/mL per 1 g lipid bodies, 300 mg in 1 mL PBS, HPLC 210 nm): 50%
- Travoprost release ([2]; second procedure: 250 μg evaporated concentrate per 1 g lipid bodies, 100 mg in 1 mL PBS, HPLC): 60.7%
Compound: CC(C)OC(=O)CCC/C=C\C[C@@H]1[C@@H](/C=C/[C@@H](O)COc2cccc(C(F)(F)F)c2)[C@H](O)C[C@@H]1O [Travoprost]

- total release [2, 4]: 8.1%
- drug released, concentration [2, 4]: 12.1 µg/mL
- total release ([2]; Example 21, repeat dilution (1 to 3 then 1 to 2)): 8.1%
Compound: CCN(CC)CCCC(C)Nc1ccnc2cc(Cl)ccc12 (stereo not drawn) [chloroquine]
